Measurements taken from patent US20220023315A1, “METHODS OF ACTIVATING MICROGLIAL CELLS” (THE RESEARCH FOUNDATION FOR THE STATE UNIVERSITY OF NEW YORK, priority 2018, published 2022).
“Also recorded” adds a separate entry of the source.

How the values were obtained:
[1] = Detection of K161 in brain tissue by mass spectrometry after single dosing; type: in vivo; conditions: mice; for detection in brain tissue: 48 hr or 96 hr after administration, mass spectrometry
Protocol: Tissues were harvested 48 hr or 96 hr after administration, and K161 was detected by mass spectrometry and quantitated against a known concentration of K161 spiked into either serum or brain tissue homogenate (FIG. 13A). The calibration curves for K161 are shown in FIGS. 13B and 13C, with the added experimental data points in FIG. 13D. The concentrations of K161 in the brain tissue samples were calculated from the linear characteristics of the standard curve FIG. 13E.

[2] = tested on: primary microglia; assay: Phagocytosis of PI-stained dead neurons, primary microglia (flow cytometry); type: cell-based, mouse
Source text: (§1) Next it was investigated if microglial can phagocytose dead neurons, and to what extent the phagocytosis of dead neurons is enhanced by SHIP inhibitors. Dead neurons were stained with propidium iodide. Propidium iodide is a fluorescent compound that binds to a cell's DNA and can be used to stain dead cells. The phagocytosis of propidium iodide (PI)-stained dead neurons by microglia was investigated by flow cytometry (FIG. 6). […] (FIG. 6C). […] Pan-SHIP inhibition increased phagocytic activity of microglial cells towards dead neurons.

[3] = tested on: CD11b+CD45low cell population (microglial cells) of the cerebral hemispheres; assay: K161-treated mice: phagocytic activity of brain cell populations; type: in vivo
Protocol: In a subsequent experiment, mice were treated twice a week for two weeks with K161. A single cell suspension of the cerebral hemispheres was prepared from K161 (10 mg/kg) and vehicle (H20)-treated mice (n=10/group). Mice were treated twice a week for two weeks, the brains harvested by flow cytometry (FIG. 12A). Box & whisker plots of frequency of single population gated on live cells singlets for markers CD11b, CD45 and ACSA2 (FIG. 12B). The ability of the various cell types to phagocytose dead neurons, beta amyloid and LysoTracker in the absence or presence of K61 are shown in FIG. 12I to 12K. A single cell suspension of the cerebral hemispheres was prepared from K161 (10 mg/kg) and vehicle (H2O)-treated mice (n=10/group). Mice were treated twice a week for two weeks, the brains harvested by flow cytometry. Box & whisker plots of dead neuron (FIG. 12I), beta amyloid (FIG. 12J) and lysotracker assay (FIG. 12K) are shown on a single brain population gated on live cells, singlets and surface markers CD11b, CD45 and ACSA2.
Therefore, SHIP inhibitors, and particularly those that inhibit both SHIP1 and SHIP2, or selectively SHIP2 (e.g., AS1949490—available from commercial suppliers such as Sigma Aldrich and Tocris), can increase microglial phagocytic capacity to remove dead neurons from the CNS.

[4] = tested on: p-mTOR (Ser2448) and p-S6 in BV2 cells; assay: Western blotting and intracellular flow of signaling kinases, BV2 cells; type: cell-based; conditions: for mTOR phosphorylation at Ser2448: microglia (BV2), Western blotting / icFlow
Protocol: (§2) Using both Western blotting and intracellular flow (icFlow) assays activation of key signaling kinases that are known to control proliferation, survival and effector functions in immune cells were examined. This included probing for phosphorylated forms of Akt, ERK, mTOR (p-mTOR) and S6 (p-S6). BV2 cells were incubated with a series of pan-SHIP inhibitors. […] In FIG. 8E, the effect of 3AC on BV2 cells is depicted, as assessed by Western Blotting, with actin and HSP90 as loading controls.

[5] = tested on: BV2 cells; assay: Phagocytosis of FITC-labeled amyloid beta (1-42), BV2 cells (flow cytometry, confocal); type: cell-based; conditions: for beta amyloid phagocytosis: BV2 cells, 16 hours, 3.75 μM, then 1 hour beta amyloid-FITC
Protocol: It was investigated if the enhanced phagocytic activity of microglia towards lysotracker and dead neurons extended to the enhanced phagocytosis of amyloid proteins. Flow cytometric assays were conducted to detect and compare the ability of SHIP inhibitor compounds to enhance the phagocytosis of amyloid beta 1-42 coupled to FITC. These assays provided a means to compare the ability of SHIP inhibitor compounds to promote a crucial effector function of microglia in the brain that is highly relevant for the pathology of Alzheimer's disease.
Cells were then washed twice and analyzed by flow cytometry for the presence of FITC-labeled amyloid beta (1-42). […] FIG. 7F-H show the confocal images of fixed BV2 cells incubated with beta amyloid with and without K161.

[6] = tested on: AKT, p-mTOR, p-S6 in primary microglia cells; assay: Expression of signaling kinases, primary microglia; type: cell-based, mouse
Protocol: as §2

[7] = Serum levels after single dose IP or oral gavage; type: in vivo, mice
Protocol: To assess oral bioavailability, K118 and K161 were administered in a single dose of 10 mg/kg either by IP or by oral gavage, and levels of each were measured in serum (FIG. 14).

[8] = tested on: primary microglia; assay: Phagocytosis of FITC-labeled amyloid beta, primary microglia (flow cytometry); type: cell-based, mouse; conditions: 16 hours, 1.25 μM, then 1 hour beta amyloid-FITC
[9] = tested on: BV2 cells; assay: LysoTracker Red staining of lysosomal/phagosomal compartment, BV2 cells (flow cytometry, confocal); type: cell-based; conditions: for LysoTrackerRed MFI (phagosomal compartment size): BV2 cells treated 16 hr, 3.75 μM and 5 μM, vs diluent control; for phagosomal compartment size (LysoTrackerRed staining): BV2 cells treated 20 hr, 50 nM LysoTrackerRed
Protocol: Flow cytometric assays were conducted to detect and compare the ability of SHIP inhibitor compounds to increase the phagocytic capacity of microglia as determined by LysoTracker Red staining which is preferentially retained and fluoresces in the acidic environment of the lysosomal/phagosomal subcellular compartment. BV2 cells were treated for 20 hr with 3AC, K118 or K149 at the indicated doses vs. their respective diluent controls, washed twice and incubated with 50 nM LysoTrackerRed and then analyzed by flow cytometry (FIG. 5). Histograms of the LysoTrackerRed staining for each compound at the indicated dose or their diluent control (0 μM) are shown. […] K118 repeated towards BV2 cells (FIG. 5D, 5E) and primary microglial cells (FIG. 5F, 5G). BV2 cells were treated for 16 hr with the indicated K118 concentration and incubated with LysoTrackerRed (50 nM), washed twice and then analyzed by flow cytometry and compared to similarly treated vs. their diluent control primary microglia (0.5% DMSO). Histograms of LysoTrackerRed staining for K118 (Red-3.75 μM, Green-5 μM) or diluent control (Blue, shaded) are shown. In FIG. 5E, line and whisker plots are shown for the mean fluorescence intensity (MFI) of LysoTrackerRed staining at the indicated concentrations of K118.
Pan-SHIP1/2 inhibition increased microglial lysosomal/phagosomal compartment.

[10] = tested on: BV2 cells; assay: Phagocytosis of PI-stained dead neurons, BV2 cells (flow cytometry); type: cell-based; conditions: for phagocytosis of dead neurons, selective inhibitors alone or combined: BV2 cells (FIG. 6C)
Source text: as §1

[11] = tested on: BV2 cells; assay: CCK-8 assay of cell growth, BV2 cells; type: cell-based; conditions: 48 hr
Protocol: (§3) The ability of 3AC, K118 and K149 to promote the proliferation of BV2 and SIM-A9 microglial cells was tested in vitro. Cells were counted with a cell counting kit-8 (e.g. CCK-8) which is a sensitive colorimetric assays for the determination of cell viability in cell proliferation and cytotoxicity assays. It uses the highly water-soluble tetrazolium salt, WST-8, which is reduced by dehydrogenase activities in cells to give a yellow-color formazan dye, which is soluble in the tissue culture media. The amount of the formazan dye, generated by the activities of dehydrogenases in cells, is directly proportional to the number of living cells.
(§4) A CCK-8 assay was performed for analysis of cell growth of BV2 cells (FIG. 4A), and SIM-A9 cells (FIG. 4B) vs. their respective vehicle controls (100%) at 48 hr. Each point represents the mean of the 6 replicates for each dose.

[12] = tested on: SIM-A9 cells; assay: CCK-8 assay of cell growth, SIM-A9 cells; type: cell-based; conditions: 48 hr
Protocol: as §3, §4

[13] = tested on: SIM-A9 cells; assay: Phagocytosis of PI-stained dead neurons, SIM-A9 cells (flow cytometry); type: cell-based; conditions: Torin with K161
Source text: as §1

[14] = 10 mg/kg twice a week for two weeks, vs vehicle

`Cc1c(CCN)c2ccccc2n1Cc1ccccc1Cl.Cl` gave a melting point of 161 to 169 °C.

`CC[C@H]1CC[C@H]2[C@@H]3C[C@@H](O)C4C[C@H](N)CC[C@]4(C)[C@H]3CC[C@]12C` (stereo partly shown) showed a melting point of 193 to 195 °C.

In the case of `C[C@@]12CCC[C@H]1C1CC[C@H]3C[C@H](N)[C@H](N)C[C@]3(C)[C@H]1CC2.Cl.Cl` (stereo in doubt) [K161, (2R,3S,5S,8R,9S,10S,13S,14S)-10,13-dimethylhexadecahydro-1H-cyclopenta[a]phenanthrene-2,3-diaminium Chloride], the “blood brain barrier penetration” value ([1]; 10 mg/kg IP or oral gavage) is reported as “can penetrate the blood brain barrier”, the “detection in brain tissue” value ([1]; 10 mg/kg IP) is reported as “detectable in the brain tissue” and the “detection in brain tissue” value ([1]; 10 mg/kg oral gavage) is reported as “detectable in the brain tissue”. The “phagocytic activity towards dead neurons” value ([2]; primary microglia, 16 hr, 1.25 μM) was “enhanced the phagocytic activity”, the “ability to phagocytose beta amyloid, CD11b+CD45low cells” value [3, 14] was “increased ability to phagocytose dead neurons and beta amyloid” and the “ability to phagocytose dead neurons, CD11b+CD45low cells” value [3, 14] was “increased ability to phagocytose dead neurons and beta amyloid”. For the same compound, the “size of the phagosomal compartment in subsets of microglial cells in the brain” value ([3]; intraperitoneal injection twice a week for two weeks) was “increased the size of the phagosomal compartment”, the p-S6 expression ([4]; BV2 cells) was “increase in p-S6 expression” and the “p-mTOR (Ser2448) expression, mean fluorescence intensity” value ([4]; BV2 cells, 16 hr, intracellular flow) was “significantly increased p-MTOR expression”. The “mTOR phosphorylation at Ser2448” value [4] was “increase mTOR phosphorylation at Ser2448”, the beta amyloid phagocytosis [5] was “Significant increases in beta amyloid phagocytosis; also recorded: significantly increased” and the “phagosomal component, confocal images” value ([5]; fixed BV2 cells incubated with beta amyloid) was “the phagosomal component is increased”. The “activation of AKT” value [6] was “activated AKT”, the “activation of p-S6” value [6] was “not p-mTOR or p-S6” and the “activation of p-mTOR” value [6] was “not p-mTOR or p-S6”. For the same compound, the “decay in vivo, compared” value ([7]; mouse, in vivo, 10 mg/kg) was “decay more rapidly in vivo than K118”, the oral bioavailability ([7]; single dose 10 mg/kg IP or oral gavage, levels in serum) was “have oral bioavailability” and the beta amyloid phagocytosis [8] was “Significant increases in beta amyloid phagocytosis”.

In the case of `CC(C)CCC[C@@H](C)[C@H]1CC[C@H]2[C@@H]3CCC4C[C@H](N)CC[C@]4(C)[C@H]3CC[C@]12C` (stereo partly shown) [3AC], the “LysoTrackerRed MFI (phagosomal compartment size)” value [9] is reported as “statistically significant increase in the phagosomal compartment size”, the “phagosomal compartment size (LysoTrackerRed staining)” value [9] is reported as “only a modest increase” and the “phagocytosis of dead neurons, selective inhibitors alone or combined” value [10] is reported as “not either of those inhibitors alone, increased phagocytosis”. The “mTOR phosphorylation at Ser2448” value [4] was “increase mTOR phosphorylation at Ser2448”.

For `C[C@H](NC(=O)c1sccc1OCc1ccc(Cl)cc1)c1ccccc1` [AS1949490], the “phagocytosis of dead neurons, selective inhibitors alone or combined” value [10] was “not either of those inhibitors alone, increased phagocytosis”.

With `CSc1ccc2c(c1)c(CCN)c(C)n2Cc1ccc(Cl)cc1Cl` [K149] the “LysoTrackerRed MFI (phagosomal compartment size)” value [9] was “statistically significant increase in the phagosomal compartment size”, the “phagosomal compartment size (LysoTrackerRed staining)” value [9] was “robust increases” and the “cell growth vs. vehicle control (100%)” value [11] was “showed effects at 2.5, 3.75 and 5 μM concentrations”. For the same compound, the “mTOR phosphorylation at Ser2448” value [4] was “increase mTOR phosphorylation at Ser2448”, the beta amyloid phagocytosis [5] was “Significant increases in beta amyloid phagocytosis; also recorded: significantly increased” and the “cell growth (proliferation) vs. vehicle control (100%)” value [12] was “an effect on proliferation was observed”.

For Torin, the “effect on K161-enhanced phagocytosis of dead neurons” value (“effect on K161-enhanced phagocytosis” for short) ([2]; primary microglial cells, Torin with K161) was “did not abolish the increase in phagocytosis of dead neurons by K161”, the “effect on K161-enhanced phagocytosis” value ([10]; BV2 cells, Torin with K161) was “did not abolish the increase in phagocytosis of dead neurons by K161” and the “effect on K161-enhanced phagocytosis” value [13] was “did not abolish the increase in phagocytosis of dead neurons by K161”.
